Read-outs that look alike come from different tables or passages of the source.
Columns and labels:
PDE1 = PDE1 activity in homogenate of guinea pig lungs or hearts ([3H]-cAMP/[3H]-cGMP two-step procedure); assay type: biochemical; conditions: guinea pig lung or heart homogenate; read-out: IC50 for PDE1 inhibition
Protocol: (§1) Activities of PDE1∼5 in the homogenate of guinea pig lungs or hearts were measured by a two-step procedure according to the previous method, using cAMP with [^3 H]-cAMP or cGMP with [^3 H]-cGMP as substrates. The enzyme preparation (25 μL) was incubated for 30 min at 37°C in a total assay volume of 100 μL containing 50 mM Tris-HCl (pH 7.4), 3 mM MgCl2, 1 mM dithiothreitol, 0.05% BSA, and 1 μM cAMP with 0.2 μCi [^3 H]-cAMP as a substrate alone or in the presence of 0.1 unit calmodulin with 10 μM CaCl2 or 5 μM cGMP, and 1 μM cGMP with 0.2 μCi [^3 H]-cGMP as another substrate alone or in the presence of 0.1 unit calmodulin with 10 μM CaCl2. […] The reagents and homogenate were mixed on ice, and the reaction was initiated by transferring the mixture to a water bath at 37°C. Following a 30 min incubation, the reaction was stopped by transferring the reaction vessel to a bath of boiling water for 3 min. After cooling on ice, 20 μL of a 1 mg/mL solution of Crotalus atrox snake venom was added to the reaction mixture, and the mixture was incubated at 37°C for 10 min. Unreacted [^3 H]-cAMP or [^3 H]-cGMP was removed by the addition of 500 μL of a 1-in-1 Tris-HCl (40 mM) buffer suspension of Dowex resin (1 × 2-400) with incubation on ice for 30 min. Each tube was then centrifuged at 3700 g for 2 min, and 100 μL of the supernatant was removed for liquid scintillation counting.

PDE3 = PDE3 activity in homogenate of guinea pig lungs or hearts; assay type: biochemical; conditions: guinea pig lung or heart homogenate; read-out: IC50 for PDE3 inhibition
Protocol: as §1

PDE4 [1] = assay: PDE4 activity in homogenate of guinea pig lungs or hearts (PDE4L); assay type: biochemical; conditions: guinea pig lung or heart homogenate; read-out: IC50 for PDE4 inhibition (PDE4L value)
Protocol: as §1

[2] = test system: high-affinity rolipram-binding sites (HARBSs), PDE4H; assay: Displacement of [3H]-rolipram from high-affinity rolipram-binding sites of brain cell membranes (PDE4H); parameters: species or system guinea pig; conditions: for EC50: 2 nM [3H]-rolipram, read-out: EC50 (PDE4H) for displacing [3H]-rolipram binding; for PDE4H/PDE4L ratio: therapeutic ratio, EC50 (PDE4H) / IC50 (PDE4L)
Protocol: When the above-mentioned guinea pigs were sacrificed, the whole brains were removed and homogenized with a glass/Teflon homogenizer (Glas-Col, Terre Haute, IN, USA) in 10 volumes of cold medium (pH 6.5) containing 20 mM Bis-Tris, 2 mM benzamidine, 2 mM EDTA, 50 mM sodium chloride, 0.1 mM PMSF, and 1 mM dithiothreitol. At 4°C, the homogenate was centrifuged at 170 g for 5 min to remove connective tissues and blood vessels. The suspended homogenate was then recentrifuged at 40,000 g for 30 min to separate the cytosolic and particulate portions. The particulate portion was resuspended in a suspension at a concentration of 400 mg/mL (wet weight/volume), after washing three times with homogenizing buffer. The particulate portion mainly consisted of cell membranes. […] Briefly, the reaction buffer consisted of 50 mM Tris-HCl and 5 mM MgCl2 (pH 7.5). […] After 1 h, the reaction was terminated by moving the reaction vessel into crushed ice. Then the reaction mixture was transferred onto Whatman GF/B glass-fiber filters, which were soaked in a 0.3% polyethyleneimine solution in a mini-funnel.

[3] = test system: airway hyperresponsiveness in ovalbumin-sensitized and challenged mice; assay: Ovalbumin-induced airway hyperresponsiveness, Penh by whole-body plethysmography; assay type: in vivo, BABL/c mice; conditions: for Penh value at the baseline / Penh value with PBS nebulization: sensitized and challenged mice; for enhancement of Penh values induced by 25 and 50 mg/mL methacholine: vs control (vehicle)
Protocol: (§2) According to the schedule (Figure 2), ten female BABL/c mice in each group were sensitized by an intraperitoneal (i.p.) injection of 20 μg of ovalbumin emulsified in 2.25 mg of an aluminum hydroxide gel, prepared from aluminum sulfate hexadecahydrate, in a total volume of 100 μL on days 0 and 14. Mice were challenged via the airway using 1% ovalbumin in saline for 30 min on days 28, 29, and 30 by ultrasonic nebulization. After the last ovalbumin challenge, AHR was assessed on day 32 (48 h after 1% ovalbumin provocation) in each group. Each group of mice was orally (p.o.) administered the vehicle (control), 30∼100 μmol/kg of hesperidin or 10∼100 μmol/kg of hesperidin-3′-O-methylether 2 h before and 6 and 24 h after ovalbumin provocation. For comparison, sham-treated mice were challenged with saline instead of 1% ovalbumin (nonchallenged). The vehicle, a mixture of DMSO : PEG 400 : saline (1 : 1 : 8, v/v), hesperidin, or hesperidin-3′-O-methylether was administered (p.o.) at a volume of 0.01 mL/g of body weight. AHR was assessed by barometric plethysmography using a whole-body plethysmograph (WBP) and analyzed using software of Life Science Suite P3 Analysis Modules (Gould, LDS Test and Measurement LLC, Valley View, OH, USA) in unrestrained animals. Mice were placed into the main chamber of the WBP, and the baseline enhanced pause (P enh) value was determined. Then mice were first nebulized with phosphate-buffered saline (PBS), and subsequently with increasing doses (6.25∼50 mg/mL) of methacholine for 3 min for each nebulization, followed by readings of breathing parameters for 3 min after each nebulization to determine P enh values. Twenty-four hours after P enh determination, these mice were anesthetized with pentobarbital (50 mg/kg, i.p.), and the lungs were lavaged via a tracheal tube with PBS (1 × 1.0 mL, 37°C). After lavage, blood was collected from the jugular vein and allowed to sit so that it would coagulate. The collected bronchoalveolar lavage fluid (BALF) and coagulated blood were respectively centrifuged at 630 g for 7 min and at 3700 g for 10 min at 4°C. After centrifugation, the BALF and serum supernatants were stored at −20°C until determinations of cytokines, including interleukin (IL)-2, IL-4, IL-5, tumor necrosis factor (TNF)-α, and interferon (IFN)-γ by flow cytometric methods using mouse Th1/Th2 cytokine CBA kits, and of a total immunoglobulin (Ig)E and IgG2a using ELISA kits (Pharmingen, San Diego, CA, USA) according to the respective recommendations of the manufacturers. Ovalbumin-specific IgE was measured as described previously. Wells were coated with 100 μL of ovalbumin (20 μg/mL) instead of the capture antibody. Levels are expressed in arbitrary units, where 1 arbitrary unit equals the optical density of the sample divided by the optical density of unchallenged mouse serum or BALF (standard). The BALF pellet was resuspended in ACK lysing buffer (1.658 g NH4Cl, 0.2 g KHCO3, and […] EDTA in 200 mL of water) to lyse the residual erythrocytes in each sample. The number of inflammatory cells was counted using a hemocytometer (Hausser Scientific, Horsham, PA, USA). Cytospin slides were stained and cell differentials were determined in a blinded fashion by counting at least 100 cells under light microscopy. All undetectable data (<1 pg/mL) of cytokines were taken as 0.5 pg/mL.

[4] = test system: inflammatory cells in BALF; assay: Inflammatory cell counts in BALF of sensitized and challenged mice; assay type: in vivo, BABL/c mice; conditions: for numbers of all inflammatory cells examined in BALF: 30 μmol/kg p.o.
Protocol: as §2

cytokines in BALF = assay: Cytokine levels in BALF of sensitized and challenged mice (flow cytometric CBA); assay type: in vivo, BABL/c mice
Protocol: as §2

[5] = test system: IgE and IgG2a in serum and BALF; assay: Total and ovalbumin-specific IgE and total IgG2a in serum and BALF (ELISA); assay type: in vivo, BABL/c mice
Protocol: as §2

[6] = test system: duration of xylazine/ketamine-induced anesthesia; assay: Xylazine/ketamine-induced anesthesia (surrogate of emesis); assay type: in vivo, BALB/c mice; conditions: mice
Protocol: According to a previously described method and modified by us, hesperidin, hesperidin-3′-O-methylether (each 300 μmol/kg, subcutaneously (s.c.)), or Ro 20-1724 (0.01∼1 μmol/kg, s.c.), a reference drug, was, respectively, injected into 8∼12-week-old female BALB/c mice 1, 1 or 0.25 h prior to an i.p. injection of xylazine (10 mg/kg)/ketamine (70 mg/kg). The vehicle (control) for hesperidin, hesperidin-3′-O-methylether, or Ro 20-1724 was a mixture of DMSO : PEG 400 : saline (1 : 1 : 8, v/v). After the loss of the righting reflex (i.e., when a mouse remained on its back and no longer spontaneously righted itself to a prone position), the duration of anesthesia was measured until its return as the endpoint.

IL-4 = test system: IL-4; parameters: method as in PMID 21287361; conditions: 10 mg/kg (16.38 μmol/kg, p.o.); similar animal model; cited from earlier work
PDE4 [7] = conditions: read-out: IC50 for PDE4 inhibition; cited from earlier work
[8] = test system: xylazine/ketamine-induced anesthesia; conditions: administered s.c.; cited from earlier work
[9] = guinea pig brain cell membranes

COc1ccc([C@@H]2CC(=O)c3c(O)cc(O[C@@H]4O[C@H](CO[C@@H]5O[C@@H](C)[C@H](O)[C@@H](O)[C@H]5O)[C@@H](O)[C@H](O)[C@H]4O)cc3O2)cc1O [hesperidin]
IC50 (PDE1): > 100 µM
IC50 (PDE3): > 100 µM
IC50 (PDE4 [1]): > 100 µM
EC50 [2, 9]: > 300 µM
displacement of 2 nM [3H]-rolipram binding on HARBSs ([2]; 300 μM, guinea pig brain cell membranes): 27.0 ± 1.4%
PDE4H/PDE4L ratio [2]: 3
suppression of AHR ([3]; 30 μmol/kg p.o.): but not hesperidin, significantly suppressed AHR
Penh value at the baseline ([3]; 30 μmol/kg p.o.): 2.39 ± 0.06
Penh value with PBS nebulization ([3]; 30 μmol/kg p.o.): 2.40 ± 0.05
Penh value at the baseline ([3]; 100 μmol/kg p.o.): 2.41 ± 0.04
Penh value with PBS nebulization ([3]; 100 μmol/kg p.o.): 2.39 ± 0.05
enhancement of Penh values induced by 25 and 50 mg/mL methacholine ([3]; 100 μmol/kg p.o.): significantly attenuated
numbers of all inflammatory cells examined in BALF [4]: unaffected
increases in numbers of total inflammatory cells, macrophages, lymphocytes, neutrophils, and eosinophils in BALF ([4]; 100 μmol/kg p.o.): significantly suppressed
increase in level of TNF-α in BALF (cytokines in BALF; 100 μmol/kg p.o.): significantly suppressed
level of IFN-γ in BALF compared to the control (cytokines in BALF; 100 μmol/kg p.o.): significantly enhanced
increases in levels of IL-2, IL-4, IL-5 in BALF (cytokines in BALF; 30∼100 μmol/kg p.o.): significantly suppressed
total and OVA-specific IgE levels in the serum and BALF ([5]; 30 μmol/kg p.o.): but not hesperidin, significantly suppressed
levels of total and ovalbumin-specific IgE in the BALF and serum ([5]; 100 μmol/kg p.o.): significantly suppressed
reduction of total IgG2a level in the serum ([5]; 100 μmol/kg p.o.): significantly reversed
duration of xylazine/ketamine-induced anesthesia ([6]; 300 μmol/kg s.c., 1 h before anesthesia): Neither hesperidin nor hesperidin-3′-O-methylether (each 300 μmol/kg, s.c.) influenced the duration
level of IL-4 (IL-4): insignificantly inhibit

COc1ccc([C@@H]2CC(=O)c3c(O)cc(O)cc3O2)cc1O [hesperetin]
IC50 (PDE4 [7]): 28.2 µM
xylazine/ketamine-induced anesthesia [8]: not influence

Cc1[nH]c(=O)c(C#N)cc1-c1ccncc1 [milrinone, reference compound]
IC50 (PDE3): 2.7 ± 0.8 µM

CCCCOc1cc(CC2CNC(=O)N2)ccc1OC (stereo not shown) [Ro 20-1724, 4-(3-butoxy-4-methoxybenzyl)-2-imidazolidinone, reference compound]
IC50 (PDE4 [1]): 3.5 ± 0.2 µM
EC50 [2, 9]: 0.105 ± 0.0131 µM
PDE4H/PDE4L ratio [2]: 0.03
duration of xylazine/ketamine-induced anesthesia ([6]; 0.01∼1 μmol/kg s.c., 0.25 h before anesthesia): dose-dependently shortened
duration of xylazine/ketamine-induced anesthesia ([6]; 0.03∼1 μmol/kg s.c., 0.25 h before anesthesia): significantly shortened

COc1ccc(C2CC(=O)c3c(O)cc(O[C@@H]4O[C@H](CO[C@@H]5O[C@@H](C)[C@H](O)[C@@H](O)[C@H]5O)[C@@H](O)[C@H](O)[C@H]4O)cc3O2)cc1OC (stereo partly shown) [hesperidin-3′-O-methylether]
IC50 (PDE1): 13.6 ± 2.3 µM
IC50 (PDE3): 13.2 ± 0.9 µM
IC50 (PDE4 [1]): 13.9 ± 2.4 µM
EC50 [2, 9]: 218 ± 32.1 µM
PDE4H/PDE4L ratio [2]: 15.7
Penh value at the baseline ([3]; 10 μmol/kg p.o.): 2.41 ± 0.05
Penh value with PBS nebulization ([3]; 10 μmol/kg p.o.): 2.41 ± 0.06
suppression of AHR ([3]; 30 μmol/kg p.o.): significantly suppressed AHR
Penh value at the baseline ([3]; 30 μmol/kg p.o.): 2.38 ± 0.06
Penh value with PBS nebulization ([3]; 30 μmol/kg p.o.): 2.42 ± 0.05
Penh value at the baseline ([3]; 100 μmol/kg p.o.): 2.41 ± 0.05
Penh value with PBS nebulization ([3]; 100 μmol/kg p.o.): 2.39 ± 0.06
enhancement of Penh values induced by 25 and 50 mg/mL methacholine ([3]; 30∼100 μmol/kg p.o.): significantly attenuated
numbers of all types of inflammatory cells in BALF ([4]; 10 μmol/kg p.o.): unaffected
numbers of all inflammatory cells examined in BALF [4]: significantly suppressed
increases in numbers of total inflammatory cells, macrophages, lymphocytes, neutrophils, and eosinophils in BALF ([4]; 30∼100 μmol/kg p.o.): significantly suppressed
level of IFN-γ in BALF compared to the control (cytokines in BALF; 100 μmol/kg p.o.): significantly enhanced
increases in levels of IL-2, IL-4, TNF-α in BALF (cytokines in BALF; 10∼100 μmol/kg p.o.): significantly suppressed
increase in level of IL-5 in BALF (cytokines in BALF; 30∼100 μmol/kg p.o.): significantly suppressed
level of total IgG2a in the serum ([5]; 30 μmol/kg p.o.): enhanced
total and OVA-specific IgE levels in the serum and BALF ([5]; 30 μmol/kg p.o.): significantly suppressed
levels of total and ovalbumin-specific IgE in the serum and BALF ([5]; 30∼100 μmol/kg p.o.): dose-dependently and significantly suppressed
reduction of total IgG2a level in the serum ([5]; 30∼100 μmol/kg p.o.): dose-dependently and significantly reversed

CCOC(=O)C1=C[C@]2(CC)CCCN3CCc4c(n1c1ccccc41)[C@@H]32 [vinpocetine, reference compound]
IC50 (PDE1): 30.8 ± 1.1 µM

COc1cc(O)c2c(c1)O[C@H](c1ccc(OC)c(OC)c1)CC2=O [hesperetin-7,3′-O-dimethylether]
IC50 (PDE4 [7]): 3 µM

Reference: PMC3469158, “Hesperidin-3′-O-Methylether Is More Potent than Hesperidin in Phosphodiesterase Inhibition and Suppression of Ovalbumin-Induced Airway Hyperresponsiveness” (Evidence-based Complementary and Alternative Medicine : eCAM, 2012)
